Measured values reported in patent US20210267944A1 (BioXcel Therapeutics, Inc., priority 2018, published 2021).
Several values for one entry are separate records, joined by “and”; a condition that tells them apart may be missing. Identical values can stand only once. Counter-ions that a name gives are not always drawn. Like-named read-outs stand apart in the source and are kept apart here.

What was measured:
[1] = system: agitated subjects with senile dementia of Alzheimer's type; settings: human, in vivo
Method: Clinical assessments of cognitive functioning, alertness/awareness, balance and reaction time were performed prior to the IV infusion, at the end of infusion until the participant had reached their baseline parameters or, in the judgment of the principal investigator, the participant had reached a stable and acceptable level of arousal.
Time period at which clinical assessment of cognitive functioning, alertness/awareness, balance, and reaction time persist after drowsiness has resolved was assessed. Cognitive functioning, alertness/awareness, balance, and reaction time reached to their baseline level within around 45 minutes after drowsiness was resolved/recovered (see Table 7).

clinical [2] = settings: human, in vivo
Method: These samples were assayed for the concentration of the drug in those participants randomized to test product.

[3] = schizophrenia study, one subject
Method: Adverse events (AEs), including serious adverse events (SAEs), were assessed, recorded, and reported in accordance with FDA guidance. Should any SAE occur, the study would be stopped until a cause for the SAE was determined.

[4] = SDAT
[5] = SDAT study
[6] = system: subjects suffering from schizophrenia
Excerpt: The level of agitation in subjects may be assessed herein using the PEC (Positive and Negative Symptom Scale—Excitatory Component) scale, which is a known five item scale that measures symptoms of agitation, namely excitement, tension, hostility, uncooperativeness, and poor impulse control, with each item rated from 1 (absent) to 7 (extremely severe). Combined scores range from 5 to 35. A score of 20 or more corresponds to severe agitation.

[7] = Opioid withdrawal Study
Excerpt: Additional Assessment Included: • 1. Hematological and blood chemistry, urinalysis • 2. Physical examination • 3. Standard of care detoxification treatment (ancillary medications) to alleviate symptoms of acute withdrawal to ensure safe discharge from study site. • 4. Adverse event reporting

[8] = for Plasma concentrations: individual opioid withdrawal patients, IV infusion
clinical [9] = settings: human, in vivo; for concentration at 15 min / concentration at 30 min / concentration at 90 min / concentration at 45 min / concentration at 60 min / concentration at 75 min: Plasma level concentration
clinical [10] = settings: human, plasma, iv, Plasma concentrations, individual opioid withdrawal patients, IV infusion
[11] = Post-ECG, After stopping of Dose
[12] = Day 2 (printed Day −2), 00:00 Hr

Cc1cccc([C@H](C)c2cnc[nH]2)c1C [dexmedetomidine hydrochloride]
Time for cognitive functioning, alertness/awareness, balance, reaction time to reach baseline after drowsiness [1]: 10 min
Time for cognitive functioning, alertness/awareness, balance, reaction time to reach baseline after drowsiness, Max [1]: 90 min
Time for cognitive functioning, alertness/awareness, balance, reaction time to reach baseline after drowsiness, Mean ± SD [1]: 42.9 ± 27.36 min
Time for cognitive functioning, alertness/awareness, balance, reaction time to reach baseline after drowsiness, Median [1]: 45 min
time for cognitive functioning, alertness/awareness, balance, reaction time to reach baseline level after drowsiness resolved [1]: ≤ 45 min
Time to reach Cmax, range (clinical [2]): 60 to 150 min
maximum dexmedetomidine concentrations, range (clinical [2]): 102 to 380 pg/mL
Plasma concentrations (clinical [2]; 0 h): 0 ng/mL
Plasma concentrations (clinical [2]; 2 h): 0.31805 ng/mL
concentration at 0 h (clinical [2]; Plasma concentrations): 0 ng/mL
concentration at 2 h (clinical [2]; Plasma concentrations): 0.378 ng/mL
AE Term [3]: Headache
AE Outcome ([3]; headache): Recovered
AE Relationship ([3]; headache): Possibly Related
AE Severity ([3]; headache): Moderate
QTc interval, Max [4, 11]: 592
QTc interval, Mean ± SD [4, 11]: 462.9 ± 73.04
QTc interval, Median [4, 11]: 441.0
QTc interval, Min [4, 11]: 370
QTc interval, Max ([4]; Pre-ECG, Before Dosing): 524
QTc interval, Mean ± SD ([4]; Pre-ECG, Before Dosing): 447.2 ± 35.51
QTc interval, Median ([4]; Pre-ECG, Before Dosing): 444.3
QTc interval, Min ([4]; Pre-ECG, Before Dosing): 398
adverse events [5]: No adverse event was reported
PEC values after infusion start ([6]; Patient No. 1, treatment arm, 0 min): 9
PEC values after infusion start ([6]; Patient No. 1, treatment arm, 15 min): 5
PEC values after infusion start ([6]; Patient No. 2, treatment arm, 0 min): 16
PEC values after infusion start ([6]; Patient No. 2, treatment arm, 15 min): 13
PEC values after infusion start ([6]; Patient No. 2, treatment arm, 30 min): 12
PEC values after infusion start ([6]; Patient No. 2, treatment arm, 45 min): 11
PEC values after infusion start ([6]; Patient No. 2, treatment arm, 60 min): 9
PEC values after infusion start ([6]; Patient No. 2, treatment arm, 75 min): 7
PEC values after infusion start ([6]; Patient No. 3, treatment arm, 0 min): 12
PEC values after infusion start ([6]; Patient No. 3, treatment arm, 15 min): 12
PEC values after infusion start ([6]; Patient No. 3, treatment arm, 30 min): 10
PEC values after infusion start ([6]; Patient No. 3, treatment arm, 45 min): 7
PEC values after infusion start ([6]; Patient No. 3, treatment arm, 60 min): 6
PEC values after infusion start ([6]; Patient No. 4, treatment arm, 0 min): 9
PEC values after infusion start ([6]; Patient No. 4, treatment arm, 15 min): 9
PEC values after infusion start ([6]; Patient No. 4, treatment arm, 30 min): 8
PEC values after infusion start ([6]; Patient No. 4, treatment arm, 45 min): 8
PEC values after infusion start ([6]; Patient No. 4, treatment arm, 60 min): 7
PEC values after infusion start ([6]; Patient No. 4, treatment arm, 75 min): 7
PEC values after infusion start ([6]; Patient No. 4, treatment arm, 90 min): 7
PEC values after infusion start ([6]; Patient No. 4, treatment arm, […]): 7
PEC values after infusion start ([6]; Patient No. 11, treatment arm, 0 min): 13
PEC values after infusion start ([6]; Patient No. 11, treatment arm, 15 min): 13
PEC values after infusion start ([6]; Patient No. 11, treatment arm, 30 min): 11
PEC values after infusion start ([6]; Patient No. 11, treatment arm, 45 min): 9
PEC values after infusion start ([6]; Patient No. 11, treatment arm, 60 min): 9
PEC values after infusion start ([6]; Patient No. 11, treatment arm, 75 min): 7
PEC values after infusion start ([6]; Patient No. 12, treatment arm, 0 min): 13
PEC values after infusion start ([6]; Patient No. 12, treatment arm, 15 min): 13
PEC values after infusion start ([6]; Patient No. 12, treatment arm, 30 min): 13
PEC values after infusion start ([6]; Patient No. 12, treatment arm, 45 min): 10
PEC values after infusion start ([6]; Patient No. 12, treatment arm, 60 min): 10
PEC values after infusion start ([6]; Patient No. 12, treatment arm, 75 min): 8
PEC values after infusion start ([6]; Patient No. 12, treatment arm, 90 min): 6
PEC values after infusion start ([6]; Patient No. 12, treatment arm, […]): 5
PEC values after infusion start ([6]; Patient No. 14, treatment arm, 0 min): 10
PEC values after infusion start ([6]; Patient No. 14, treatment arm, 15 min): 9
PEC values after infusion start ([6]; Patient No. 14, treatment arm, 30 min): 6
PEC values after infusion start ([6]; Patient No. 14, treatment arm, 45 min): 6
PEC values after infusion start ([6]; Patient No. 14, treatment arm, 60 min): 5
PEC values after infusion start ([6]; Patient No. 14, treatment arm, 75 min): 5
PEC values after infusion start ([6]; Patient No. 16, treatment arm, 0 min): 10
PEC values after infusion start ([6]; Patient No. 16, treatment arm, 15 min): 9
PEC values after infusion start ([6]; Patient No. 16, treatment arm, 30 min): 6
PEC values after infusion start ([6]; Patient No. 16, treatment arm, 45 min): 6
PEC values after infusion start ([6]; Patient No. 16, treatment arm, 60 min): 7
PEC values after infusion start ([6]; Patient No. 16, treatment arm, 75 min): 5
PEC values after infusion start ([6]; Patient No. 17, treatment arm, 0 min): 10
PEC values after infusion start ([6]; Patient No. 17, treatment arm, 15 min): 8
PEC values after infusion start ([6]; Patient No. 17, treatment arm, 30 min): 7
PEC values after infusion start ([6]; Patient No. 17, treatment arm, 45 min): 5
Efficacy (Primary/secondary end points): subjects with PEC score below 7 ([6]; Schizophrenia Study): 9/10 PEC score
patients in the treatment arm with agitation reduced to a minimum (PEC score of 7 or below) ([6]; schizophrenia): 9 out of 10
adverse events [7]: No adverse event was reported
Plasma concentrations ([8]; Day 1 (printed Day −1), 00:00 Hr): BLQ
Plasma concentrations [8, 12]: BLQ
Plasma concentrations ([8]; Day 2 (printed Day −2), 01:00 Hr): 54.81 picograms/ml and 97.92 picograms/ml and 119.71 picograms/ml
Plasma concentration achieved at efficacious doses ([8]; Opioid withdrawal Study): 0.011 to 0.406 ng/mL
Cmax (clinical [9]): 0.0225 to 0.406 ng/mL
concentration at 15 min (clinical [9]; Patient 1, Treatment, 15 min of infusion): 0.0225 ng/mL
concentration at 30 min (clinical [9]; Patient 1, Treatment): 0.0147 ng/mL
concentration at 90 min (clinical [9]; Patient 4, Treatment): 0.0443 ng/mL
concentration at 15 min (clinical [9]; Patient 11, Treatment, 15 min): 0.041 ng/mL
concentration at 30 min (clinical [9]; Patient 11, Treatment): 0.0629 ng/mL
concentration at 45 min (clinical [9]; Patient 11, Treatment): 0.124 ng/mL
concentration at 60 min (clinical [9]; Patient 11, Treatment): 0.15 ng/mL
concentration at 30 min (clinical [9]; Patient 12, Treatment): 0.0449 ng/mL
concentration at 45 min (clinical [9]; Patient 12, Treatment): 0.0505 ng/mL
concentration at 60 min (clinical [9]; Patient 12, Treatment): 0.109 ng/mL
concentration at 75 min (clinical [9]; Patient 12, Treatment): 0.159 ng/mL
concentration at 90 min (clinical [9]; Patient 12, Treatment): 0.238 ng/mL
concentration at 30 min (clinical [9]; Patient 14, Treatment): 0.0527 ng/mL
concentration at 45 min (clinical [9]; Patient 14, Treatment): 0.0465 ng/mL
concentration at 60 min (clinical [9]; Patient 14, Treatment): 0.406 ng/mL
concentration at 15 min (clinical [9]; Patient 16, Treatment, 15 min): 0.00256 ng/mL
concentration at 30 min (clinical [9]; Patient 16, Treatment): 0.0156 ng/mL
concentration at 45 min (clinical [9]; Patient 16, Treatment): 0.0412 ng/mL
concentration at 60 min (clinical [9]; Patient 16, Treatment): 0.0679 ng/mL
concentration at 75 min (clinical [9]; Patient 16, Treatment): 0.0723 ng/mL
concentration at 15 min (clinical [9]; Patient 17, Treatment, 15 min): 0.0159 ng/mL
concentration at 45 min (clinical [9]; Patient 17, Treatment): 0.0399 ng/mL
concentration at 15 min (clinical [9]; Patient 18, Treatment, 15 min): 0.0484 ng/mL
concentration at 30 min (clinical [9]; Patient 18, Treatment): 0.0545 ng/mL
concentration at […] (clinical [10]; Day 1 (printed Day −1), 01:15 Hr): 0.0753 ng/mL
concentration at […] (clinical [10]; Day 1 (printed Day −1), 01:30 Hr): 0.112 ng/mL
concentration at 0 h (clinical [10]; [12]): 0.00821 ng/mL
concentration at […] (clinical [10]; Day 2 (printed Day −2), 01:15 Hr): 0.14 ng/mL
concentration at […] (clinical [10]; Day 2 (printed Day −2), 01:30 Hr): 0.177 ng/mL
concentration at […] (clinical [10]; Day 2 (printed Day −2), 01:45 Hr): 0.288 ng/mL
concentration at 2 h (clinical [10]; Day 2 (printed Day −2), 02:00 Hr): 0.404 ng/mL
